Results on 36 compounds are retold here after US8173635B2, “Kinase inhibitors” (Vertex Pharmaceuticals Incorporated, priority 2007, dated 2012).

What all share (assay type): biochemical
One experiment has as its target PKC delta kinase (Homo sapiens, UniProt Q05655). In words: PKC delta kinase inhibition, coupled-enzyme NADH absorbance assay (Ki). The note with it: 150 μM ATP, 46 nM PKC delta, 30° C.; read-out: Ki PKC delta. In outline: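 Assay buffer was 100 mM HEPES pH 7.5, 10 mM MgCl2, 25 mM NaCl, 0.1 mM EDTA, 0.01% Brij. Enzyme buffer was equilibrated with compound in DMSO for 10 min at 30 °C. Ki values were derived by non-linear regression of initial rate data.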

In the next experiment the target is PKC alpha kinase (Homo sapiens, UniProt P17252). In words: PKC alpha kinase inhibition, coupled-enzyme NADH absorbance assay (Ki). The note with it: 130 μM ATP, 4.5 nM PKC alpha, 30° C.; read-out: Ki PKC alpha.
Another experiment concerns the target PKC theta kinase (Homo sapiens, UniProt Q04759). In words: PKC theta kinase inhibition, coupled-enzyme NADH absorbance assay (Ki). The note with it: 240 μM ATP, 18 nM PKC theta, 30° C.; read-out: Ki PKC theta. In outline: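 Coupled-enzyme kinase assay following NADH absorbance at 340 nm, in 100 mM HEPES pH 7.5, 10 mM MgCl2, 25 mM NaCl, 0.1 mM EDTA, 0.01% Brij. Compound in DMSO preincubated with enzyme 10 min at 30 °C. Ki from initial rates by non-linear regression.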

PKC delta kinase, sequence (Q05655 whole entry): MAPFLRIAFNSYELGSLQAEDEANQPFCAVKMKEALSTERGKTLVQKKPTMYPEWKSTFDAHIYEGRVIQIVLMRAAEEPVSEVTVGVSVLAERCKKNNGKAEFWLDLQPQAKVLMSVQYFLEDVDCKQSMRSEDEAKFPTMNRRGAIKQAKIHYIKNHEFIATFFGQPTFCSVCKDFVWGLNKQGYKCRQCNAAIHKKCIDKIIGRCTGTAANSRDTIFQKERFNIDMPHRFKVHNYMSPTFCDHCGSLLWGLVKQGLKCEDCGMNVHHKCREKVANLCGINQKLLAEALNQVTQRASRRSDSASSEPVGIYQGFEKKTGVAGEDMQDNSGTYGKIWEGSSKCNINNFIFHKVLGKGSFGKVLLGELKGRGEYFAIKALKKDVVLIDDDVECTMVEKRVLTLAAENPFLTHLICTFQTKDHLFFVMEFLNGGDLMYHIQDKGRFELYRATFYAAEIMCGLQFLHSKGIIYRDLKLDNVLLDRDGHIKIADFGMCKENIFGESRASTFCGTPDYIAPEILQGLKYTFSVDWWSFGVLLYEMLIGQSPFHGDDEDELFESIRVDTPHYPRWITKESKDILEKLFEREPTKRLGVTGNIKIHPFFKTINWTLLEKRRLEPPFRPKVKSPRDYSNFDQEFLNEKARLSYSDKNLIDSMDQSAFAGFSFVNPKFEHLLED
PKC theta kinase, sequence (Q04759 whole entry): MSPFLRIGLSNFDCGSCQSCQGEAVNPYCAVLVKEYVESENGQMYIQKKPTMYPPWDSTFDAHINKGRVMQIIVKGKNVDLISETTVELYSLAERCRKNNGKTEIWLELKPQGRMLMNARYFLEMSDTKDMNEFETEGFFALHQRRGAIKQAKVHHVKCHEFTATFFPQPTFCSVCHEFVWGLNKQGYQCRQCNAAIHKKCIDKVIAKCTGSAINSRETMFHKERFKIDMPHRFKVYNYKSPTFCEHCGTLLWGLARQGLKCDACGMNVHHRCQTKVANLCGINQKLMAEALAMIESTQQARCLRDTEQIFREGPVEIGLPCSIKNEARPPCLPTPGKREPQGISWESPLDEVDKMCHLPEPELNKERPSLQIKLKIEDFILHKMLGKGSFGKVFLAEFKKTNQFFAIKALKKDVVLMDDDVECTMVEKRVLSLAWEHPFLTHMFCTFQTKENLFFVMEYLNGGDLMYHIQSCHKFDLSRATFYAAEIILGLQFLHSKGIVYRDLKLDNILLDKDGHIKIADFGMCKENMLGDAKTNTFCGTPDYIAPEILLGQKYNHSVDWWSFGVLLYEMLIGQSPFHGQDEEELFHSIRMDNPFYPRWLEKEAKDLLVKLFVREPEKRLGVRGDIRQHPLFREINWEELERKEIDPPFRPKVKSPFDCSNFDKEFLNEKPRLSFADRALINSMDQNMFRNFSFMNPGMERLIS

Take `FC(F)(F)c1n[nH]c2nccc(-c3cccc(C4(COCc5ccccc5)CC4)c3)c12` [Compound 289]: the Ki on PKC delta kinase is over 2000 nM; at PKC alpha kinase it was over 1200 nM; on PKC theta kinase it was over 700 nM.
Taken in the same sequence, the figures for `OCC1(c2cccc(-c3ccnc4[nH]nc(C(F)(F)F)c34)c2)CC1` [Compound 290] were under 500 nM, under 2800 nM and under 50 nM.
On the same counts, the results for `OCC1(c2cccc(-c3ccnc4[nH]nc(C(F)(F)F)c34)c2)CCC1` [Compound 291] are under 2800 nM, over 1200 nM and under 50 nM.
Taken in the same sequence, the figures for `CCC1(c2cc(C)cc(-c3ccnc4[nH]nc(C(F)(F)F)c34)c2)CNC(=O)O1` (stereo not drawn) [Compound 292] were over 1200 nM, under 500 nM and under 50 nM.
In the case of `CCC(F)(CN)c1cc(C)cc(-c2ccnc3[nH]nc(C(F)(F)F)c23)c1` (stereo not drawn) [Compound 293], the Ki is under 500 nM at PKC delta kinase, under 500 nM at PKC alpha kinase and under 50 nM at PKC theta kinase.
Consider `NCc1cccc(-c2ccnc3[nH]nc(C(F)(F)F)c23)c1` [Compound 294], for which the figures for the Ki on PKC delta kinase, at PKC alpha kinase and at PKC theta kinase were over 1200 nM, over 1200 nM and under 500 nM, respectively.
For the compound `CC#CC1(c2cc(C)cc(-c3ccnc4[nH]nc(C(F)(F)F)c34)c2)CNC(=O)O1` (stereo not drawn) [Compound 295], the results for the Ki at PKC delta kinase, on PKC alpha kinase and at PKC theta kinase were over 1200 nM, over 1200 nM and over 700 nM, respectively.
`CCC1(c2cc(C)cc(-c3ccnc4[nH]nc(C(F)(F)F)c34)c2)CNC(=S)O1` (stereo not drawn) [Compound 296]: the Ki is over 1200 nM on PKC delta kinase, under 500 nM at PKC alpha kinase and under 50 nM at PKC theta kinase.
On the same counts, the results for `COC(CN)c1cc(C)cc(-c2ccnc3[nH]nc(C(F)(F)F)c23)c1` (stereo not drawn) [Compound 297] are under 2800 nM, under 500 nM and under 50 nM.
On the same counts, the results for `NC(CC1CCCCC1)c1cccc(-c2ccnc3[nH]nc(C(F)(F)F)c23)c1` (stereo not drawn) [Compound 298] are over 1200 nM, over 1200 nM and over 700 nM.
Taken in the same sequence, the figures for `N#CC1(c2cc(CCCN)cc(-c3ccnc4[nH]ncc34)c2)CC1` [Compound 301] were under 500 nM, under 2800 nM and under 50 nM.
On to `CCc1n[nH]c2nccc(-c3cc(CCCN)cc(C4(C#N)CC4)c3)c12` [Compound 302], for which the figures for the Ki at PKC delta kinase, at PKC alpha kinase and at PKC theta kinase were under 500 nM, under 2800 nM and under 50 nM, respectively.
For the compound `NCC1(c2cccc(-c3ccnc4[nH]nc(C(F)(F)F)c34)c2)COC1` [Compound 305, (3-(3-(3-(trifluoromethyl)-1H-pyrazolo[3,4-b]pyridin-4-yl)phenyl)oxetan-3-yl)methanamine], the Ki is under 500 nM on PKC delta kinase, under 2800 nM on PKC alpha kinase and under 50 nM at PKC theta kinase.
Taken in the same sequence, the figures for `CCc1n[nH]c2nccc(-c3cccc(C4(CN)COC4)c3)c12` [Compound 306] were under 500 nM, over 1200 nM and under 50 nM.
As for `NCC1CCc2ccc(-c3ccnc4[nH]ncc34)cc21` (stereo not drawn) [Compound 308], the Ki is under 500 nM at PKC delta kinase, over 1200 nM at PKC alpha kinase and under 500 nM at PKC theta kinase.
With `CCC(N)c1cccc(-c2ccnc3[nH]nc(C(F)(F)F)c23)c1` (stereo not drawn) [Compound 309], the figures for the Ki on PKC delta kinase, at PKC alpha kinase and at PKC theta kinase were under 2800 nM, under 2800 nM and under 50 nM, respectively.
On to `Cc1cc(-c2ccnc3[nH]ncc23)cc(C2(CN)CNC(=O)O2)c1` (stereo not drawn) [Compound 310], for which the Ki at PKC delta kinase is over 1200 nM; at PKC alpha kinase it was under 2800 nM; at PKC theta kinase, under 50 nM.
On the same counts, the results for `N#CC1(c2cc(-c3ccnc4[nH]nc(C(F)(F)F)c34)cc(C(F)(F)CN)c2)CC1` [Compound 311] are under 500 nM, under 500 nM and under 50 nM.
Taken in the same sequence, the figures for `N#CC1(c2cc(CCCO)cc(-c3ccnc4[nH]nc(C(F)(F)F)c34)c2)CC1` [Compound 312] were under 2800 nM, under 500 nM and under 50 nM.
On the same counts, the results for `CCC(O)(c1cc(C)cc(-c2ccnc3[nH]nc(C(F)(F)F)c23)c1)C1CNC1` (stereo not drawn) [Compound 314] are under 500 nM, under 2800 nM and under 50 nM.
For the compound `CC(C)(O)C#Cc1cc(-c2ccnc3[nH]nc(C(F)(F)F)c23)cc(C2(C#N)CC2)c1` [Compound 315], the Ki on PKC delta kinase is over 1200 nM; at PKC alpha kinase, over 1200 nM; at PKC theta kinase it was under 2800 nM.
Turning to `CC(C)(O)CCc1cc(-c2ccnc3[nH]nc(C(F)(F)F)c23)cc(C2(C#N)CC2)c1` [Compound 316], the Ki on PKC delta kinase is over 1200 nM; at PKC alpha kinase it was over 1200 nM; at PKC theta kinase, under 50 nM.
Regarding `CC(C)(N)CCc1cc(-c2ccnc3[nH]nc(C(F)(F)F)c23)cc(C2(C#N)CC2)c1` [Compound 317], the Ki on PKC delta kinase was over 1200 nM; on PKC alpha kinase it was over 1200 nM; on PKC theta kinase it was under 50 nM.
On to `CCC(C)(CO)c1cccc(-c2ccnc3[nH]nc(C(F)(F)F)c23)c1` (stereo not drawn) [Compound 318], for which the figures for the Ki at PKC delta kinase, at PKC alpha kinase and on PKC theta kinase were under 50 nM, under 500 nM and under 50 nM, respectively.
As for `C#CC1(c2cc(C)cc(-c3ccnc4[nH]ncc34)c2)CNC(=O)O1` (stereo not drawn) [Compound 319], the Ki on PKC delta kinase is under 500 nM; on PKC alpha kinase, under 500 nM; at PKC theta kinase, under 50 nM.
In the case of `N#CC(c1cccc(-c2ccnc3[nH]ncc23)c1)N1CCOCC1` (stereo not drawn) [Compound 320], the Ki at PKC delta kinase was over 1200 nM; at PKC alpha kinase it was over 1200 nM; on PKC theta kinase it was over 700 nM.
Regarding `N#CC(c1cccc(-c2ccnc3[nH]ncc23)c1)N1CCNCC1` (stereo not drawn) [Compound 321], the Ki at PKC delta kinase is over 1200 nM; at PKC alpha kinase, over 1200 nM; on PKC theta kinase, under 500 nM.
Consider `OCc1cccc(-c2ccnc3[nH]ncc23)c1` [Compound 322], for which the figures for the Ki at PKC delta kinase, at PKC alpha kinase and on PKC theta kinase were over 1200 nM, over 1200 nM and over 700 nM, respectively.
`Cc1cc(/C(=C/C#N)CN)cc(-c2ccnc3[nH]ncc23)c1` [Compound 323]: the Ki at PKC delta kinase was under 2800 nM; at PKC alpha kinase it was under 500 nM; on PKC theta kinase it was under 500 nM.
For `Cc1cc(-c2ccnc3[nH]nc(C(F)(F)F)c23)cc(C(C)(C)C#N)c1` [Compound 324], the Ki is over 1200 nM on PKC delta kinase, under 500 nM on PKC alpha kinase and under 50 nM at PKC theta kinase.
Taken in the same sequence, the figures for `C=CCC1(c2cc(C)cc(-c3ccnc4[nH]ncc34)c2)CNC(=O)O1` (stereo not drawn) [Compound 325] were over 1200 nM, under 500 nM and under 500 nM.
Regarding `C=CCC1(c2cc(C)cc(-c3ccnc4[nH]ncc34)c2)CN(C)C(=O)O1` (stereo not drawn) [Compound 326], the values for the Ki on PKC delta kinase, at PKC alpha kinase and on PKC theta kinase were over 1200 nM, over 1200 nM and under 500 nM, respectively.
Consider `Cc1cc(-c2ccnc3[nH]ncc23)cc(C2(Cc3ccccc3)CNC(=O)O2)c1` (stereo not drawn) [Compound 327], for which the Ki at PKC delta kinase is over 1200 nM; on PKC alpha kinase it was under 2800 nM; on PKC theta kinase, under 500 nM.
As to `N#CC1(c2cc(-c3ccnc4[nH]ncc34)cc(C(F)(F)C3CNC3)c2)CC1` [Compound 328], the Ki at PKC delta kinase was under 2800 nM; on PKC alpha kinase it was under 2800 nM; on PKC theta kinase, under 50 nM.
Turning to `N#CC1(c2cc(CC(N)=O)cc(-c3ccnc4[nH]nc(C(F)(F)F)c34)c2)CC1` [Compound 329], the values for the Ki on PKC delta kinase, at PKC alpha kinase and at PKC theta kinase were over 1200 nM, over 1200 nM and under 50 nM, respectively.
`N#CC1(c2cc(-c3ccnc4[nH]ncc34)cc(C(F)(F)CCN)c2)CC1` [Compound 330]: the Ki on PKC delta kinase was under 500 nM; on PKC alpha kinase, under 500 nM; at PKC theta kinase, under 50 nM.
